Blank lines part the entries; values can stand above or below the compound they belong to.
Experiments:
[1] = Oral dose PK of NPT2042 in dog (AUC for absolute bioavailability); assay type: in vivo; settings: dog
Description: Assays were performed to determine absolute bioavailability of NPT2042 in two species: dog and rat. The calculation of absolute bioavailability depends on four inputs: the areas under the curves (AUC) for oral and IV, and the oral and IV doses.
Testing was conducted to determine AUCs for an oral dose in dog.
Two dogs were each dosed 30 mg/kg NPT2042 orally, on two different days.

[2] = system: Dog Microsomes; test: Metabolite screening of NPT-2042 in dog microsomes; assay type: in vitro ADME; settings: NPT-2042 10 uM, microsomes 1 mg/mL, 1 hour, NADPH regenerating system
Description: (§1) Incubation of Test Compound in Microsomes • 1. Compound final concentration: 10 uM. • 2. Microsomes concentration 1 mg/mL. • 3. Incubate for 1 hour, with an NADPH regenerating system. • 4. 0.5 mL of incubation mixture at 0 min and 1 hour, mixed with 0.5 mL of acetonitrile. • 5. Vortex, and centrifuge at 13200 rpm for 10 min. • 6. Supernatant was transferred to a clean vial for LCMS analysis NADPH regenerating system (cofactor; consisting of NADP [0.340 mg/mL], G6P [1.56 mg/mL], and G6PDH [0.4 U/mL] solutions) LC-MS/MS Method: • HPLC Column: Agilent, Polaris 3 […], 150×2.0 mm (S/N: 533819), made in Netherlands. • Guard Column: Agilent, MonoChrom 3 C18 MetaGuard, 10×2.0 mm (S/N: 556145) • Column temperature: 40° C. • Mobile Phase A: 5 mM ammonium format in water (Optima) • Mobile Phase B: acetonitrile (Optima) • Flow rate: 0.2 mL/min • Gradient (Table on right) • MS: Thermo Q Exactive Plus.

[3] = system: Rat Microsomes; test: Metabolite screening of NPT-2042 in rat microsomes; assay type: in vitro ADME; settings: NPT-2042 10 uM, microsomes 1 mg/mL, 1 hour, NADPH regenerating system
Description: as §1

[4] = system: Microsomes; test: Proposed metabolite structures and biotransformation pathways (rat, dog, human microsomes); assay type: in vitro ADME; settings: for Proposed Biotransformation Pathway: metabolite of NPT-2042 in microsomes
Description: Incubation of Test Compound in Microsomes • 1. Compound final concentration: 10 uM. • 2. Microsomes concentration 1 mg/mL. • 3. Incubate for 1 hour, with an NADPH regenerating system. • 4. 0.5 mL of incubation mixture at 0 min and 1 hour, mixed with 0.5 mL of acetonitrile. • 5. Vortex, and centrifuge at 13200 rpm for 10 min. • 6. Supernatant was transferred to a clean vial for LCMS analysis NADPH regenerating system (cofactor; consisting of NADP [0.340 mg/mL], G6P [1.56 mg/mL], and G6PDH [0.4 U/mL] solutions)
LC-MS/MS Method: • HPLC Column: Agilent, Polaris 3 C18-A, 150×2.0 mm (S/N: 533819), made in Netherlands. • Guard Column: Agilent, MonoChrom 3 C18 MetaGuard, 10×2.0 mm (S/N: 556145) • Column temperature: 40° C. • Mobile Phase A: 5 mM ammonium format in water (Optima) • Mobile Phase B: acetonitrile (Optima) • Flow rate: 0.2 mL/min • Gradient (Table on right) • MS: Thermo Q Exactive Plus.
Summary of Proposed Metabolite Structures and Biotransformation Pathway

[5] = system: Human Microsomes; test: Metabolite screening of NPT-2042 in human microsomes; assay type: in vitro ADME; settings: NPT-2042 10 uM, microsomes 1 mg/mL, 1 hour, NADPH regenerating system
Description: as §1

[6] = elderly, population-based control study; cited from earlier work
[7] = dose level 30 mg/kg NPT2042, Table 4
[8] = dose level 30 mg/kg NPT2042, Table 5

Bumetanide concentration, Time 0.50 h [1, 7]: BQL | Bumetanide concentration, Time 1.00 h [1, 7]: BQL | Bumetanide concentration, Time 2.00 h [1, 7]: BQL | Bumetanide concentration, Time 4.00 h [1, 7]: BQL | Bumetanide concentration, Time 6.00 h [1, 7]: BQL | Bumetanide concentration, Time 8.00 h [1, 7]: BQL | Bumetanide concentration, Time 12.00 h [1, 7]: BQL | Bumetanide concentration, Time 24.00 h [1, 7]: BQL | Bumetanide concentration, Time 0.50 h [1, 8]: BQL | Bumetanide concentration, Time 1.00 h [1, 8]: BQL | Bumetanide concentration, Time 2.00 h [1, 8]: BQL | Bumetanide concentration, Time 4.00 h [1, 8]: BQL | Bumetanide concentration, Time 6.00 h [1, 8]: BQL | Bumetanide concentration, Time 8.00 h [1, 8]: BQL | Bumetanide concentration, Time 12.00 h [1, 8]: BQL | Bumetanide concentration, Time 24.00 h [1, 8]: BQL
SMILES: CCCCNc1cc(C(=O)O)cc(S(N)(=O)=O)c1Oc1ccccc1 [Bumetanide, bumetanide, reference compound]

SMILES: Nc1cc(C(=O)NCc2ccccc2)cc(S(N)(=O)=O)c1Oc1ccccc1 [Example M1]
Dog Mic (MS Intensity) [2]: 2.95E+06 | Rat Mic (MS Intensity) [3]: 1.28E+07 | Proposed Biotransformation Pathway [4]: De-alkylations | Human Mic (MS Intensity) [5]: 1.42E+06

SMILES: Nc1cc(C(=O)N(Cc2ccccc2)Cc2ccccc2)cc(S(N)(=O)=O)c1Oc1ccccc1 [Example M4]
Dog Mic (MS Intensity) [2]: 3.11E+07 | Rat Mic (MS Intensity) [3]: 6.53E+07 | Proposed Biotransformation Pathway [4]: De-alkylation | Human Mic (MS Intensity) [5]: 2.52E+07

SMILES: CCCCNc1cc(C(=O)NCc2ccccc2)cc(S(N)(=O)=O)c1Oc1ccccc1 [Example M6]
Dog Mic (MS Intensity) [2]: 4.12E+07 | Rat Mic (MS Intensity) [3]: 7.96E+07 | Proposed Biotransformation Pathway [4]: De-alkylation | Human Mic (MS Intensity) [5]: 3.25E+07

Metabolism of positive control ([4]; microsome incubation): showed Phase I metabolism
SMILES: O=C(O)Cc1ccccc1Nc1c(Cl)cccc1Cl [diclofenac, reference compound]

SMILES: NS(=O)(=O)c1cc(C(=O)O)c(NCc2ccco2)cc1Cl [furosemide]
Protective factor for the development of epilepsy [6]: 39%
